In patent US8741928B2, “Protected antimicrobial compounds for high temperature applications” (Dow Global Technologies LLC, priority 2010, dated 2014):

Tests used:
[1] = tested on: T. thermophilus; assay: Biocidal efficacy against thermophilic bacteria at 70° C.; format: cell-based; conditions: for Kill of bacteria maintained over 21 days: equivalent to 50 ppm glutaraldehyde, 4 hr exposure between challenge and enumeration, weekly challenges over 21 days
Procedure: b. Thermophilic Bacteria. A 48-72 hour old culture of T. thermophilus is pelleted by centrifuging at 2000 g and the pellet resuspended in 10 times the culture volume of buffer (PBS or carbonate-buffered synthetic freshwater). The suspension is distributed into 10 mL aliquots in glass screw-cap tubes. Each tube is then treated with glutaraldehyde or an adduct and incubated at 70° C. At indicated timepoints, cell density in each tube is measured via dilution to extinction by serially diluting a sample and plating dilutions on solid media.

[2] = Analysis of glutaraldehyde release after heat-aging; format: physicochemical; conditions: sterile deionized water, molar equivalent of 2000 ppm glutaraldehyde, initial and after heat-aging at 55° C. for 2 h or 24 h; for Glutaraldehyde concentration after pre-column derivatization by HPLC: acidic derivatization
Procedure: Samples of the AMPD-adduct and TA-adduct are analyzed for glutaraldehyde content. Samples are prepared in sterile deionized water at the molar equivalent of 2000 ppm glutaraldehyde. A standard of 500 ppm glutaraldehyde is also prepared. An initial measurement is taken just after sample preparation. Samples are then heat-aged at 55° C. for 2 h or 24 h and analyzed again. Glutaraldehyde concentration is measured directly via GC and after pre-column derivatization by HPLC.

O=CCCCC=O [glutaraldehyde, reference compound]
Control of bacterial levels after 5 days ([1]; equivalent of 100 ppm glutaraldehyde, after 5 days): fails to control bacterial levels
Kill of bacteria maintained over 21 days [1]: 4 log

CC12COC3CCCC(OC1)N32 (centres unmarked) [AMPD-adduct, 2a-methyloctahydro-1,4-dioxa-2a1-azacyclopenta[cd]indene]
Kill of bacteria maintained over 21 days [1]: 4 log
Glutaraldehyde concentration measured directly via GC [2]: No glutaraldehyde is detected
Glutaraldehyde concentration after pre-column derivatization by HPLC [2]: low levels of glutaraldehyde

OCC12COC3CCCC(OC1)N32 (centres unmarked) [TA-adduct, (octahydro-1,4-dioxa-2a^1-azacyclopenta[cd]inden-2a-yl)methanol]
Kill of bacteria maintained over 21 days [1]: 4 log
Glutaraldehyde concentration measured directly via GC [2]: No glutaraldehyde is detected
Glutaraldehyde concentration after pre-column derivatization by HPLC [2]: low levels of glutaraldehyde
